According to PMC5540273, “Progress towards a public chemogenomic set for protein kinases and a call for contributions” (PLoS ONE, 2017):

Columns and labels:
Assay in all cases: KINOMEscan competition binding
CTK = biological target: T1, CTK (Homo sapiens, UniProt P42679); details: read-out: %Inh CTK
T1 sequence (P42679 1-507): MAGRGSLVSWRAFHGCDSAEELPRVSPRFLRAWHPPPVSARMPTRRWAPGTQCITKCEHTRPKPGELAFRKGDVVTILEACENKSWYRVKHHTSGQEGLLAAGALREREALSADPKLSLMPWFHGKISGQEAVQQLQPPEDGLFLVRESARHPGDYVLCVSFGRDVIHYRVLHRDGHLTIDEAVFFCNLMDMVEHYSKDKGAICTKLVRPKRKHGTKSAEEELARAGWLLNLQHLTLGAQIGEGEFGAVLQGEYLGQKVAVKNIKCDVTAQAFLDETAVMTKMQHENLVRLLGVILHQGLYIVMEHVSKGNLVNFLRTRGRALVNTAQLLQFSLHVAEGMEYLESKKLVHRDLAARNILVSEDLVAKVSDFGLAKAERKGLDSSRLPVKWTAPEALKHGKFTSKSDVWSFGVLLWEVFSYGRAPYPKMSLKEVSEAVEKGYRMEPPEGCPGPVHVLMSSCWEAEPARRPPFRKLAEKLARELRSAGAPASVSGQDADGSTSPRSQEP

LZK = biological target: T2, LZK (Homo sapiens, UniProt O43283); details: read-out: %Inh LZK
T2 sequence (O43283 1-966): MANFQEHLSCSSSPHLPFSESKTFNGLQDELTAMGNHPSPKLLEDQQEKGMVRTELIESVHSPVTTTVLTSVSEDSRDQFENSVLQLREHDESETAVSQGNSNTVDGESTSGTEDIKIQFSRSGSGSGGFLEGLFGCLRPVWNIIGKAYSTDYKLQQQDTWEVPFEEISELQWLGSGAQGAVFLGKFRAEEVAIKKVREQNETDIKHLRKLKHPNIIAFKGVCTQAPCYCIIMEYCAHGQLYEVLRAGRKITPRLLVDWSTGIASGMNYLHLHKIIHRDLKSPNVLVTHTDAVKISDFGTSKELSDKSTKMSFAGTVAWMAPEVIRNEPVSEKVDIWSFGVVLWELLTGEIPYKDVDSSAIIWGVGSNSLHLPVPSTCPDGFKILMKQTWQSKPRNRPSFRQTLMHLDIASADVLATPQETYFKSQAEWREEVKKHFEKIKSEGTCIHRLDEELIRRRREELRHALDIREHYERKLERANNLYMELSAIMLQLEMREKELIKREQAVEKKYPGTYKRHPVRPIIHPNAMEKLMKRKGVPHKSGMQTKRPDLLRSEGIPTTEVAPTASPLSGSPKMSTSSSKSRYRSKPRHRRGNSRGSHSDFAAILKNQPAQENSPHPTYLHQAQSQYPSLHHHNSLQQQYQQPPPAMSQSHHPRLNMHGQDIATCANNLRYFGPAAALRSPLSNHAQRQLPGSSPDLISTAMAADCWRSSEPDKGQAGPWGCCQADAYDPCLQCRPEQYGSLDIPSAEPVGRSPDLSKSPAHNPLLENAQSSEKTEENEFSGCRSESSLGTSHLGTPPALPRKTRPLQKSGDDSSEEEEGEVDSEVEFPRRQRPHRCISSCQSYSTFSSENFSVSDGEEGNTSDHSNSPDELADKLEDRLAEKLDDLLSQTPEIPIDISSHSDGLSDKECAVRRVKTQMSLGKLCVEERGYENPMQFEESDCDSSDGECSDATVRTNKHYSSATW

EPHA3 = biological target: T3, EPHA3 (Homo sapiens, UniProt P29320); details: read-out: %Inh EPHA3
T3 sequence (P29320 21-983): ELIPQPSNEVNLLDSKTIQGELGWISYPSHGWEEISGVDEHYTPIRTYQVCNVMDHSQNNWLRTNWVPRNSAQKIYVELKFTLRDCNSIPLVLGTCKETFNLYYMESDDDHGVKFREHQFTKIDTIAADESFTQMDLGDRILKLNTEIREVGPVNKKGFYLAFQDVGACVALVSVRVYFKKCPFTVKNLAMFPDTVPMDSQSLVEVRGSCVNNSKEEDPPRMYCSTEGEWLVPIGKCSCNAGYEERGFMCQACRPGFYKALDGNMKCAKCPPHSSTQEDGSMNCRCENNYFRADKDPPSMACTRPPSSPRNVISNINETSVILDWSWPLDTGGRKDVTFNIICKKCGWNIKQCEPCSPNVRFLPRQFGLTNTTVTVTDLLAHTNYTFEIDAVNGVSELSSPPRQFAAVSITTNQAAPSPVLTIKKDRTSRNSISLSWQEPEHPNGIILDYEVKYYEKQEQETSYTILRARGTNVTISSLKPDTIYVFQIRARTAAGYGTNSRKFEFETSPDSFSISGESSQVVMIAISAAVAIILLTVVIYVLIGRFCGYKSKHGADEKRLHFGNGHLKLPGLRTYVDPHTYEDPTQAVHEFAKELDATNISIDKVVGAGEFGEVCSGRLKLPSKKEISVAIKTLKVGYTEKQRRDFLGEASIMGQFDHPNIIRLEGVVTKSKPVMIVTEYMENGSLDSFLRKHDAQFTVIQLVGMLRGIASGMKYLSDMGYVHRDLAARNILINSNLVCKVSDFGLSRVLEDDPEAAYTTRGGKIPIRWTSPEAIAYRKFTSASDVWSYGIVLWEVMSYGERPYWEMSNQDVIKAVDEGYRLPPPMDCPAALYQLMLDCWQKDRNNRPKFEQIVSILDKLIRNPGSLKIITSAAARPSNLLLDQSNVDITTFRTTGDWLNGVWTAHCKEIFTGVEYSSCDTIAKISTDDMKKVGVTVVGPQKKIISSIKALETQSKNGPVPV

LCK = LCK (Homo sapiens, UniProt P06239); details: read-out: %Inh LCK
GSK3A = GSK3A (Homo sapiens, UniProt P49840); details: read-out: %Inh GSK3A
CDK4-cyclinD1 = CDK4-cyclinD1 (Homo sapiens, UniProt P11802); details: read-out: %Inh CDK4-cyclinD1
CDK4-cyclinD1, sequence (P11802 whole entry): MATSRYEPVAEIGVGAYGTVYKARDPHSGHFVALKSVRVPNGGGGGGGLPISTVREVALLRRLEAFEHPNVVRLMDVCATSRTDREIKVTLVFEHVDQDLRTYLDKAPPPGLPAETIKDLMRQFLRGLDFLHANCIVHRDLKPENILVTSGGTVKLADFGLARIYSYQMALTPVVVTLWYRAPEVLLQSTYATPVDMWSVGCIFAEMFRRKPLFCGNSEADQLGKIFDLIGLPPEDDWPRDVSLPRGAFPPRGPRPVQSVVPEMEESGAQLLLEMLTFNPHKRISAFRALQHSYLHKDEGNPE
CDK4-cyclinD1, sequence (P24385 whole entry partner): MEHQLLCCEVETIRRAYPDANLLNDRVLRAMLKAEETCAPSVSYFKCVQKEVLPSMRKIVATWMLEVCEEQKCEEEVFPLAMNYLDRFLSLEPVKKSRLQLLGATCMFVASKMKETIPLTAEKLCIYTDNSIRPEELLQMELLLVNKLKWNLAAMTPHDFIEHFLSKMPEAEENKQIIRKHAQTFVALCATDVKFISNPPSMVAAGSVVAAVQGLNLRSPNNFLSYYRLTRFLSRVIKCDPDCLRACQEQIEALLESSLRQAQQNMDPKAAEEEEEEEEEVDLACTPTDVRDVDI

LCK, sequence (P06239 whole entry): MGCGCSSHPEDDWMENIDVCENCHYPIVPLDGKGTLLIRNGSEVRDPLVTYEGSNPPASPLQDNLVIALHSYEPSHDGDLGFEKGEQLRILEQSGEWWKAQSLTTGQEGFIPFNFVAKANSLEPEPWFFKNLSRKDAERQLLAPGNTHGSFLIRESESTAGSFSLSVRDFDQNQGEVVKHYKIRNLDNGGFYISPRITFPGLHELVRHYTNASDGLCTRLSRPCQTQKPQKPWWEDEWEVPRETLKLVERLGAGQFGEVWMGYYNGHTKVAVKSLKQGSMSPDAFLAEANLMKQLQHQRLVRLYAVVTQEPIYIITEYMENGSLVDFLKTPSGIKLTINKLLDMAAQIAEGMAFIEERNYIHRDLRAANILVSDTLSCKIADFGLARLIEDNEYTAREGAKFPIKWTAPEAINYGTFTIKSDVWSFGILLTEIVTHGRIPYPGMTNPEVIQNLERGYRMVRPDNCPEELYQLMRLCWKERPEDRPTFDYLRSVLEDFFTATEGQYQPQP
GSK3A, sequence (P49840 whole entry): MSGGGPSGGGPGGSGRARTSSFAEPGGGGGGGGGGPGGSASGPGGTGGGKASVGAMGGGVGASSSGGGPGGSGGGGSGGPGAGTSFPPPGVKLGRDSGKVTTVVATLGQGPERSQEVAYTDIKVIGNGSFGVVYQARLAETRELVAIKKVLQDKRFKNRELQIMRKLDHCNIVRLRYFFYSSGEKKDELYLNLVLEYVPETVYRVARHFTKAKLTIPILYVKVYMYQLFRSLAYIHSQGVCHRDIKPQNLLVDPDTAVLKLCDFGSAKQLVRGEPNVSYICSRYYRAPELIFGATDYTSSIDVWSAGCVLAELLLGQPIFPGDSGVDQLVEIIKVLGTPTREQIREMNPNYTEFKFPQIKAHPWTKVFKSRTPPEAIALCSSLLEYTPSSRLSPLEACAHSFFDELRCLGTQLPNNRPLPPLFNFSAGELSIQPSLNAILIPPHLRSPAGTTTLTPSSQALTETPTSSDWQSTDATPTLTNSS

Structure (SMILES)	inhibition at 1 µM (CTK) [%]	inhibition at 1 µM (LZK) [%]	inhibition at 1 µM (EPHA3) [%]	inhibition at 1 µM (LCK) [%]	inhibition at 1 µM (GSK3A) [%]	inhibition at 1 µM (CDK4-cyclinD1) [%]
Cn1cc(-c2cnc(N)c3c(-c4ccc5c(c4)CCN5C(=O)Cc4ccccc4)csc23)cn1 [UNC10225012A]	62	0	0	93.8	5	0
O=c1cc(N2CCOCC2)nc2n(Cc3cccc(Cl)c3Cl)c(C3CC3)nn12 [UNC10225469A]	0	0	0	23	4	0
COc1cccc(OC)c1C(=O)Nc1cccc(-c2nn3ccccc3c2-c2ccnc(Nc3cccc(F)c3)n2)c1 [UNC10225310A]	21	8	0	24	24	0
CS(=O)(=O)Cc1ccc(Nc2nccc(-c3c(-c4cccc(NC(=O)C5CCCCC5)c4)nn4ncccc34)n2)cc1 [UNC10225159A]	38	0	16	23	0	15
Cc1ccc(NC(=O)Nc2cccc(C(F)(F)F)c2)cc1 [UNC10225187A]	0	0	0	6	0	0
